Laboratory results: patent US20090181972A1, “Novel Inhibitors of Cysteine Proteases, the Pharmaceutical Compositions Thereof and their Therapeutic Applications” (priority 2005, published 2009)
pIC50: −log10 of the molar value.

Legend:
[1] = molecular target: T1, USP7 (Homo sapiens, UniProt Q93009); assay: USP7 activity assay; assay type: biochemical; settings: 400 nM Ub-AMC, 152 pM enzyme; pre-incubated 30 minutes at 25° C., 60 minutes at 37° C.; sigmoidal fit; read-out: USP 7
T1 construct: His tag (pFastBac-HT vector) (N); made in house; host or cells: Sf9 or High Five insect cells (baculovirus)
Source text: The cDNA encoding USP7 was obtained by PCR amplification from placenta mRNA. USP7 cDNA was subcloned by PCR into a baculovirus expression vector (pFastBac-HT; Invitrogen). A cDNA encoding a mutated USP7 was generated by mutagenic PCR. The corresponding protein encodes a cysteine to alanine substitution at residue 223. The sequences were ascertained by sequencing of the entire open reading frame. Bacmids encoding USP7 were generated following DH10bac transposition. The corresponding bacmids were transfected into insect cells (Sf9). Viruses were recovered from culture supernatant and amplified twice. Insect cells (Sf9 or High Five; lnvitrogen) were infected for 72 hours. Total cell lysates were harvested and lyzed in lysis buffer (Tris HCl 50 mM pH 7.6; 0.75 % NP40; 500 mM NaCl; 10% glycerol; 1 mM DTT; 10 mM imidazole; Protease Inhibitor Cocktail; AEBSF 20 μg.ml^−1; Aprotinin 10 μg.ml^−1). Proteins were affinity purified on metal affinity resins (Talon Metal affinity resin; BD Biosciences). Bound materials were extensively washed in wash buffer (50 mM Sodium Phosphate pH 7.0; 300 mM NaCl; 10 mM imidazole; 0.5% Triton X-100; 10% glycerol) and eluted from the resin in 250 mM imidazole-containing wash buffer. Proteins were dialyzed in dialysis buffer (Tris HCl pH 7.6 20 mM; NaCl 200 mM; DTT 1 mM; EDTA 1 mM; 10% Glycerol). Proteins purifications were analyzed on 4-12% NuPAGE (Invitrogen).
USP7 was diluted in USP buffer (50 mM Tris HCl; 0.5 mM EDTA; 5 mM DTT; 0.01 % Triton X-100; Bovine Serum Albumin 0.05 mg.ml^−1 pH 7.6). Compounds stocks (100 mM) were stored at −20° C. in DMSO. Compounds were tested at the following final concentrations: 100 μM; 33.3 μM; 11.1 μM; 3.7 μM; 1.23 μM; 412 nM; 137 nM; 45.7 nM; 15.2 nM; 5 nM.
Reactions were performed as duplicates in Black LJL 96 well plates (HE microplates; Molecular Devices; 20 μl final reaction volume). The substrate concentration for USP7 was 400 nM Ub-AMC (Chem. Biol., 2003, 10, p. 837-846) (Boston Biochem). The concentrations of the enzyme (USP7) in specificity assays was 152 pM. The concentrations were determined in order to perform specificity assays under initial velocities at fixed substrate concentration. Compounds were pre-incubated with enzymes for 30 minutes at 25° C. Reactions were initiated by addition of substrate to the plates containing the enzymes (+/− compounds) diluted in assay buffer. Reactions were incubated for 60 minutes at 37° C. Reactions were stopped by adding acetic acid (100 mM final). Readings were performed on a Pherastar Fluorescent Reader (BMG). λ Emission 380 nm; λ Excitation=460 nm. Data (mean values +/− standard deviation) were analyzed as % of control (no compound) and plotted as percentage versus the Log of the compound concentration using GraphPad (Prism). Data were fitted to a sigmoidal model (variable slope).

[2] = molecular target: T2, Caspase 3 (Homo sapiens, UniProt P42574); assay: Caspase 3 activity assay; assay type: biochemical; settings: 500 nM Ac-DEVD-AMC, 3.2 nM enzyme; pre-incubated 30 minutes at 25° C., 60 minutes at 37° C.; sigmoidal fit
T2 sequence (P42574 29-175 limits assumed): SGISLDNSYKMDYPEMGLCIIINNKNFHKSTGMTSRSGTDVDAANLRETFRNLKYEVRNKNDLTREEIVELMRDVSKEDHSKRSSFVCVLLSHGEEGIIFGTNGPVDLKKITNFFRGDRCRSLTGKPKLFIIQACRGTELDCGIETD
T2 sequence (P42574 176-277 limits assumed): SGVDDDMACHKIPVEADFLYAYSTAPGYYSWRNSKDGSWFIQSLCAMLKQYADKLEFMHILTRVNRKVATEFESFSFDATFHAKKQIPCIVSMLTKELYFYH
Protocol: Caspase 3 was diluted in Caspase 3 buffer (100 mM Hepes pH 7.5; 10% sucrose; 0.1% CHAPS). Compounds stocks (100 mM) were stored at −20° C. in DMSO. Compounds were tested at the following final concentrations: 100 μM; 33.3 μM; 11.1 μM; 3.7 μM; 1.23 μM; 412 nM; 137 nM; 45.7 nM; 15.2 nM; 5 nM. Reactions were performed as duplicates in Black LJL 96 well plates (HE microplates; Molecular Devices; 20 μl final reaction volume). The substrate concentration for caspase 3 specificity assay was 500 nM (Ac-DEVD-AMC; Promega). The concentration of the enzyme (Caspase 3) in specificity assays was 3.2 nM. The concentrations were determined in order to perform specificity assays under initial velocities at fixed substrate concentration. Compounds were pre-incubated with enzymes for 30 minutes at 25° C. Reactions were initiated by addition of substrate to the plates containing the enzymes (+/− compounds) diluted in assay buffer. Reactions were incubated for 60 minutes at 37° C. Reactions were stopped by adding acetic acid (100 mM final). Readings were performed on a Pherastar Fluorescent Reader (BMG). δ Emission 380 nm; δ Excitation=460 nm. Data (mean values +/− standard deviation) were analyzed as % of control (no compound) and plotted as percentage versus the Log of the compound concentration using GraphPad (Prism). Data were fitted to a sigmoidal model (variable slope).

T1 sequence (Q93009 whole entry): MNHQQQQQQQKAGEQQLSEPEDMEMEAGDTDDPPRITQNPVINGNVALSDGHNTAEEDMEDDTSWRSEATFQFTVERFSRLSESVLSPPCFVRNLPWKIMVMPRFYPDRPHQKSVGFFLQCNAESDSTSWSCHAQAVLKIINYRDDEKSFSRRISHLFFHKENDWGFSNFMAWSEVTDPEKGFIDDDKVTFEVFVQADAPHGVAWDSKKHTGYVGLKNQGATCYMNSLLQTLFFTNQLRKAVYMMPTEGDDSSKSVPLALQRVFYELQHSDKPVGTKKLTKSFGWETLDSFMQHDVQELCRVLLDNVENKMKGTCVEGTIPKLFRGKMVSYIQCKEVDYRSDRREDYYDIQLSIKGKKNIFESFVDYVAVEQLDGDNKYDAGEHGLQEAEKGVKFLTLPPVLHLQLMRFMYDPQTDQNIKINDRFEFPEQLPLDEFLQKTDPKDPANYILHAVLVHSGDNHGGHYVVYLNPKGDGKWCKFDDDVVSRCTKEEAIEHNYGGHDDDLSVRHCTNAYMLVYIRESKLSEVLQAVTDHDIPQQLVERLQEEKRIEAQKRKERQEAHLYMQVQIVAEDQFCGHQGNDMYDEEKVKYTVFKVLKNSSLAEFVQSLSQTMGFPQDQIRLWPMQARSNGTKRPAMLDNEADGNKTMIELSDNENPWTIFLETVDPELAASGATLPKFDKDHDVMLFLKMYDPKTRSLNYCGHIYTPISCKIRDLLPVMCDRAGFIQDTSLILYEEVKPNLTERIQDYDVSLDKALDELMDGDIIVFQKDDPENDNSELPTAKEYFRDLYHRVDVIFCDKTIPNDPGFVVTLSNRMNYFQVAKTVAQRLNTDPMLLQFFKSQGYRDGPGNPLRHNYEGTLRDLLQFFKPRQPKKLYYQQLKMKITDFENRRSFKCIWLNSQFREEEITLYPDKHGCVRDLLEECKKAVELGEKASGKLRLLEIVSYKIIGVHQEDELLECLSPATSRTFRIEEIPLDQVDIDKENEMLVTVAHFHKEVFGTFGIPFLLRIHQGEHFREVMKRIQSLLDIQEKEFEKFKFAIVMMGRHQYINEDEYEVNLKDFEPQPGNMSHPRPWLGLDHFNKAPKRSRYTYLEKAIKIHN

Row | Compound | pIC50 [1] | pIC50 [2]
1 | CCc1nnc2nc3c(nn12)C(=O)c1cc(OC)c(OC)cc1-3 [Example 5b/A, 1-Ethyl-6,7-dimethoxy-2,3,4,10,10a-pentaaza-cyclopenta[b]fluoren-9-one] | 4.88 | 5.28
2 | CCc1nnc2nc3c(nn12)-c1c(OC)ccc(OC)c1C3=O [Example 6/B, 3-Ethyl-5,8-dimethoxy-1,2,3a,4,10-pentaaza-cyclopenta[b]fluoren-9-one] | 5.51 | –
3 | CCc1nnc2nc3c(nn12)-c1cc(OC)c(OC)cc1C3=O [Example 5b/B, 3-Ethyl-6,7-dimethoxy-1,2,3a,4,10-pentaaza-cyclopenta[b]fluoren-9-one] | 5.98 | 6.50
4 | O=C1c2ccccc2-c2nn3c(C(F)(F)F)nnc3nc21 [Example 1m/B, 3-Trifluoromethyl-1,2,3a,4,10-pentaaza-cyclopenta[b]fluoren-9-one] | 6.65 | –
5 | COc1cc2c(cc1OC)-c1nn3c(C)nnc3nc1C2=O [Example 5a/B, 6,7-Dimethoxy-3-methyl-1,2,3a,4,10-pentaaza-cyclopenta[b]fluoren-9-one] | 6.28 | –
6 | CCCc1nnc2nc3c(nn12)-c1cc(OC)c(OC)cc1C3=O [Example 5c/B, 6,7-Dimethoxy-3-propyl-1,2,3a,4,10-pentaaza-cyclopenta[b]fluoren-9-one] | 6.03 | –
7 | CC(C)c1nnc2nc3c(nn12)C(=O)c1ccccc1-3 [Example 1l/A, 1-lsopropyl-2,3,4,10,10a-pentaaza-cyclopenta[b]fluoren-9-one] | – | 5.30
8 | CC(C)c1nnc2nc3c(nn12)-c1ccccc1C3=O [Example 1l/B, 3-Isopropyl-1,2,3a,4,10-pentaaza-cyclopenta[b]fluoren-9-one] | 6.09 | –
9 | COCCOCCOCc1nnc2nc3c(nn12)C(=O)c1ccccc1-3 [Example 1n/A, 1-[2-(2-Methoxy-ethoxy)-ethoxymethyl]-2,3,4,10,10a-pentaaza-cyclopenta[b]fluoren-9-one] | 5.92 | –
10 | 6-(7)-Chloro-1-methyl-2,3,4,10,10a-pentaaza-cyclopenta[b]fluoren-9-one [Example 3/A] | 5.55 | 5.82
